Source: patent US9796709B2, “5-hydroxy-4-(trifluoromethyl)pyrazolopyridine derivative” (Daiichi Sankyo Company, Limited, priority 2013, dated 2017)

Columns and labels:
[1] = tested on: cynomolgus monkey; test: Drug efficacy test in cynomolgus monkeys (plasma HDL cholesterol); format: in vivo; settings: Macaca fascicularis, oral, single dose of 10 mg/kg, from AUC before administration and 24 hours after administration, read-out: Rate of increase in HDL level after administration of single dose
Protocol: Each test drug was dissolved in a propylene glycol (Sigma-Aldrich Corp.)-Tween 80 (Sigma-Aldrich Corp.) mixed solution [4/1 (v/v)] or a 0.5% (w/v) methylcellulose aqueous solution, and the solution was orally administered to a cynomolgus monkey for 1 or 7 days. At day 1 or 7 of the administration period, blood was collected before administration and after administration, and plasma was obtained. The content of cholesterol in the plasma was measured using a commercially available assay kit (Cholesterol-E Wako, Wako Pure Chemical Industries, Ltd.). The lipoprotein profile was analyzed by HPLC (column: LipopropakXL, manufactured by Tosoh Corp.). The contents of HDL cholesterol and non-HDL cholesterol were calculated according to the following calculation expression: Content of HDL cholesterol=Content of cholesterol in the plasma×(Peak area of HDL cholesterol/Total sum of peaks) Content of non-HDL cholesterol=Content of cholesterol in the plasma×(Peak area of non-HDL cholesterol/Total sum of peaks)

[2] = target: T1, LCAT (Homo sapiens, UniProt P04180); test: LCAT activity measurement (in vitro), [14C]cholesterol esterification with HDL3 fraction; format: biochemical; settings: HDL3 fraction from plasma of a healthy person as enzyme source and acceptor; 37° C., approximately 16 hours; relative to sample without test drug; read-out: EC50 of LCAT activation
T1 construct: The obtained fraction was dialyzed against phosphate-buffered saline (pH 7.4) and used as an enzyme source and an acceptor for LCAT; from tissue; host or cells: HDL3 fraction (1.125 < specific gravity < 1.210 g/mL) of plasma from a healthy person
T1 sequence (P04180 25-440): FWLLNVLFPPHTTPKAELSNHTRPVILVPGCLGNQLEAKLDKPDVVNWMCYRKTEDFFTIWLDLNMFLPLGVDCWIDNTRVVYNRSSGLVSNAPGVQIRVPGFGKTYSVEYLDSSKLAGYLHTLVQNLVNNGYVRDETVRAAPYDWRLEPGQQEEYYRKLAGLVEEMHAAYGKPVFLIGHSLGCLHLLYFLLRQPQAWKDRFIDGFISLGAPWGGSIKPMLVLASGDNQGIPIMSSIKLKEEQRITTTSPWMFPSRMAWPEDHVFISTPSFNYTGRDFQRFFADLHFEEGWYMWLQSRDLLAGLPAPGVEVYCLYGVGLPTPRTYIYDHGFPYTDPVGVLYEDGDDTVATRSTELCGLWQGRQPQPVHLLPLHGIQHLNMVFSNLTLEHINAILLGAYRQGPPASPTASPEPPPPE
Protocol: A fraction composed of HDL3 (1.125 <specific gravity <1.210 g/mL) was obtained from the plasma of a healthy person by density gradient centrifugation. The obtained fraction was dialyzed against phosphate-buffered saline (pH 7.4) and used as an enzyme source and an acceptor for LCAT. Each test drug was prepared by dissolution in dimethyl sulfoxide. [^14C]Cholesterol containing DTNB (Ellman's reagent, final concentration: 0.5 mM), mercaptoethanol (final concentration: 12.5 mM), and 0.6% bovine serum albumin was added to phosphate-buffered saline (pH 7.4) containing 1 mg/mL HDL3, and the test drug was further added thereto at varying concentrations to adjust the whole amount to 80 μL. This mixture was incubated at 37° C. for approximately 16 hours. Then, a mixed solution of hexane and isopropanol (mixing ratio=3:2) was added thereto to stop the reaction. After stirring, the hexane layer was collected, and this layer was evaporated to dryness. A chloroform solution (concentration: 10 mg/mL) was added thereto, and the mixture was spotted onto a thin-layer silica gel plate and developed using a mixed solution of hexane, diethyl ether, and ethyl acetate (mixing ratio=85:15:2). The radioactivity of a portion corresponding to cholesterol oleate was measured using an imaging analyzer BAS-2500 (manufactured by Fujifilm Corp.). A sample non-supplemented with the test drug was similarly treated and assayed. The EC50 value of LCAT activation was calculated according to the expression given below relative to LCAT activity in the sample non-supplemented with the test drug.
[formula] • wherein X represents the logarithm of the concentration of the test drug; • Y represents the responsiveness (LCAT activity) of the test drug; • Top represents the maximum value (maximum plateau); • Bottom represents the minimum value (minimum plateau); and • EC50 represents the 50% effective concentration.

SMILES	change in vivo at 10 mg/kg [1] [%]	EC50 [2] [nM]
O=C1Nc2[nH]nc(C3CCN(c4cc(C(F)(F)F)ncn4)CC3)c2[C@@H](C(F)(F)F)[C@H]1O (single isomer, unassigned) [Example 30, (+)-cis-5-Hydroxy-4-(trifluoromethyl)-3-{1-[6-(trifluoromethyl)pyrimidin-4-yl]piperidin-4-yl}-1,4,5,7-tetrahydro-6H-pyrazolo[3,4-b]pyridin-6-one]	290	63
O=C1Nc2[nH]nc(C3CCN(c4cnc(C(F)(F)F)cn4)CC3)c2C(O)(C(F)(F)F)C1O (single isomer, unassigned; (+)) [Example 34, (+)-4,5-Dihydroxy-4-(trifluoromethyl)-3-{1-[5-(trifluoromethyl)pyrazin-2-yl]piperidin-4-yl}-1,4,5,7-tetrahydro-6H-pyrazolo[3,4-b]pyridin-6-one]	590	4
O=C1Nc2[nH]nc(C3CCN(c4ccc(C(F)(F)F)cn4)CC3)c2C(O)(C(F)(F)F)C1O (single isomer, unassigned; (+)) [Example 35, (+)-4,5-Dihydroxy-4-(trifluoromethyl)-3-{1-[5-(trifluoromethyl)pyridin-2-yl]piperidin-4-yl}-1,4,5,7-tetrahydro-6H-pyrazolo[3,4-b]pyridin-6-one]	482	7
